{"source": "ChEMBL document CHEMBL1201862", "about": "“PubChem BioAssay data set” (2004)", "key": {"[1]": {"biological_target": "Tyrosine-protein phosphatase non-receptor type 11 (Homo sapiens, UniProt Q06124)", "sequence (Q06124 whole entry)": "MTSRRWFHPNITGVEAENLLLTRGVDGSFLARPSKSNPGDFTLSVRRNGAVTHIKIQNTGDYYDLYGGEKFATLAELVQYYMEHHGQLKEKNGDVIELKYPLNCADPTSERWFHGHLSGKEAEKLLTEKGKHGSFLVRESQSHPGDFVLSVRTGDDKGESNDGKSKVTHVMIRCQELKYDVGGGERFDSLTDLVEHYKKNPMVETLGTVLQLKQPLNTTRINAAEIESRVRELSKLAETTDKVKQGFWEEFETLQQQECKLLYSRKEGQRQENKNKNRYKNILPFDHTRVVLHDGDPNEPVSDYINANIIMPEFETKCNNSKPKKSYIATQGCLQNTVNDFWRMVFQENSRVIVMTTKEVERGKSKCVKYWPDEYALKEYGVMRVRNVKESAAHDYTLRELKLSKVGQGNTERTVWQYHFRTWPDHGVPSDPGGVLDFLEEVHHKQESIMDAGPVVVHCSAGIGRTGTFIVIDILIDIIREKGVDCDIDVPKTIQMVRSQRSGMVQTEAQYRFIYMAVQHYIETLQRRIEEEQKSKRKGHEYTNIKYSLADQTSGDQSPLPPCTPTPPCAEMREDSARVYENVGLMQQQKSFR", "assay": "PTPN11 enzyme inhibitors – biochemical, selectivity assay for STEP inhibitor project, dose response (AID 602367)", "assay_type": "functional", "conditions": "read-out: IC50_Mean"}, "[2]": {"biological_target": "Tyrosine-protein phosphatase non-receptor type 5 (Homo sapiens, UniProt P54829)", "sequence (P54829 whole entry)": "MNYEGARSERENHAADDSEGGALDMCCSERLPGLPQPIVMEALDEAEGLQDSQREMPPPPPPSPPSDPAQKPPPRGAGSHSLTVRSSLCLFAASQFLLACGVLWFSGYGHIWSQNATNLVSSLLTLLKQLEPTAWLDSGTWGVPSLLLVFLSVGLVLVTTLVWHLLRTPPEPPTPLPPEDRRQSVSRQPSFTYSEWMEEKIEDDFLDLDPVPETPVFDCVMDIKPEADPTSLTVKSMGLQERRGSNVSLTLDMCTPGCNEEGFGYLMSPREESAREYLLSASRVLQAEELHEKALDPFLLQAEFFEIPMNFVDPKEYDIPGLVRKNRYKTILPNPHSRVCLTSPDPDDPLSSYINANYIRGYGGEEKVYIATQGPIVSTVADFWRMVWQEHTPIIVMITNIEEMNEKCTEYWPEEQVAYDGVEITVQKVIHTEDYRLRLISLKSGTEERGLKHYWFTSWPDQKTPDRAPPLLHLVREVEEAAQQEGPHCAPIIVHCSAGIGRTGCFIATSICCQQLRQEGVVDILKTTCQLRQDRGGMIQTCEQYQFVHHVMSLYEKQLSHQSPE", "assay": "PTPN5 enzyme inhibition – biochemical, fluorescence intensity, uHTS hits, confirmation (AID 602372)", "assay_type": "functional", "conditions": "read-out: IC50_Mean"}, "[3]": {"biological_target": "Dual specificity protein phosphatase 3 (Homo sapiens, UniProt P51452)", "sequence (P51452 whole entry)": "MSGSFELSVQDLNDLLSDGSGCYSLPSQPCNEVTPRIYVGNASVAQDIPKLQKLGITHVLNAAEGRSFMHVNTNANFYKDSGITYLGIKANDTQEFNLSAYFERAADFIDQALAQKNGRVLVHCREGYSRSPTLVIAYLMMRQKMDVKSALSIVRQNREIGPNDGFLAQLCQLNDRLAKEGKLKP", "assay": "VHR phosphatase inhibition, dose response, selectivity assay for STEP inhibitor project, biochemical (AID 602374)", "assay_type": "functional", "conditions": "read-out: IC50_Mean"}, "[4]": {"biological_target": "Luciferin 4-monooxygenase (Photinus pyralis, UniProt P08659)", "sequence (P08659 whole entry)": "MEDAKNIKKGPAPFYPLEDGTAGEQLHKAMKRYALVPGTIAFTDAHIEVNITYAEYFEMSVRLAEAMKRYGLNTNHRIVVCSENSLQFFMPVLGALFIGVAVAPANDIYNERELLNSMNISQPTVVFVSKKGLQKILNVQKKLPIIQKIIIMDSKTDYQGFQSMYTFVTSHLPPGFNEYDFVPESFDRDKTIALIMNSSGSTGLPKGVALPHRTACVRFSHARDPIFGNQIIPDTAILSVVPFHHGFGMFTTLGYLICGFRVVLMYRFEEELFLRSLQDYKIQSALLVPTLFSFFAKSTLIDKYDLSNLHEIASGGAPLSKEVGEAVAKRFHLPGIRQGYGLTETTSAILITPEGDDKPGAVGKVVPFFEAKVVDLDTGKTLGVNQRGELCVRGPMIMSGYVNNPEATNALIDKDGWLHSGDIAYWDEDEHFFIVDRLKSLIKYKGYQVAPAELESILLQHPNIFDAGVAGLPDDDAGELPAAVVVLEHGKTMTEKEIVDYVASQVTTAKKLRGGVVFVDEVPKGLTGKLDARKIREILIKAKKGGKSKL", "assay": "inhibition of purified Photinus pyralis luciferase – biochemical, luminescence, dose response (AID 1891)"}, "[5]": {"assay": "Luminescence Cell-Based Dose Confirmation HTS to Identify Inhibitors of Platelet Dense Granule Release. [Related pubchem assays: 1663 (Primary HTS), 1678 (Summary of Project)]", "assay_type": "functional"}, "[6]": {"biological_target": "Nuclear receptor subfamily 5 group A member 2 (Homo sapiens, UniProt O00482)", "sequence (O00482 whole entry)": "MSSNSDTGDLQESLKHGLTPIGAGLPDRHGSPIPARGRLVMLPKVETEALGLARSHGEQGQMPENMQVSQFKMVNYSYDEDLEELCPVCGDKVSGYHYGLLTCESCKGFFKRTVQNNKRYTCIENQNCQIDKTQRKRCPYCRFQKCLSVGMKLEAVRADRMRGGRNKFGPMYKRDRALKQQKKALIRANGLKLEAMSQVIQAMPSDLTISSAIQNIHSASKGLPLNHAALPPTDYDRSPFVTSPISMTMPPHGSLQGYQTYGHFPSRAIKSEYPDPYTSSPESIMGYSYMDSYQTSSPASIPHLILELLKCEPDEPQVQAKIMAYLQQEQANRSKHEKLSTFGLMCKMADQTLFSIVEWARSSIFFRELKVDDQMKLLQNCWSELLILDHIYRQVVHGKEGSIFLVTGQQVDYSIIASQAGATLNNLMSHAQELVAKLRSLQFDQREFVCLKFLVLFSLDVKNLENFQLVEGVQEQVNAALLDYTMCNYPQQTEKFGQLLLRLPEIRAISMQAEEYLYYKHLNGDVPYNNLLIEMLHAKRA", "assay_type": "functional, cell-based"}, "Steroidogenic factor 1": {"biological_target": "Steroidogenic factor 1 (Homo sapiens, UniProt Q13285)", "sequence (Q13285 whole entry)": "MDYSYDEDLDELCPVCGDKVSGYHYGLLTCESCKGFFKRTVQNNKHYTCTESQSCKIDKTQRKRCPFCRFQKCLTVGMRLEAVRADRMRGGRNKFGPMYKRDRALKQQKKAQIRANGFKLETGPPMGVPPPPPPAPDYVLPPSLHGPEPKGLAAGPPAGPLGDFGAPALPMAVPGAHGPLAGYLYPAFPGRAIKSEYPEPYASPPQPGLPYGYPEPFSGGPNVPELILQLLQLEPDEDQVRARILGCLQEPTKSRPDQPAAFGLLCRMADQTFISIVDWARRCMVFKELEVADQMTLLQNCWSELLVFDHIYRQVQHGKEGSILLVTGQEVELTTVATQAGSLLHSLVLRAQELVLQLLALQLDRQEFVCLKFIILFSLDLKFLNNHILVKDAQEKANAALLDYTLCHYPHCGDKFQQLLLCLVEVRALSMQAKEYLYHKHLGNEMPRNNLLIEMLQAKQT", "assay": "Counterscreen for inverse agonists of the liver receptor homolog-1 (LRH-1; NR5A2): Luminescence-based cell-based high throughput dose response assay to identify inverse agonists of the Steroidogenic Factor 1 Nuclear Receptor (SF1; NR5A1).", "assay_type": "functional"}, "[7]": {"assay": "nonselective StAR promoter luciferase inhibitors – cell-based, luminescence, luciferase reporter, counter-screen for LRH-1 inverse agonist project, dose response (AID 651969)", "assay_type": "functional"}, "[8]": {"assay": "luciferase reporter signal suppression in cells – H4 neuroglioma cells, luminescence, dose response (AID 1990)", "assay_type": "functional, cell-based"}, "[9]": {"assay": "Luminescence Cell-Based Dose Response HTS to Identify Inhibitors of 5'UTR Stem-Loop Driven Prion Protein mRNA Translation in H4 Neuroglioblastoma Cells. [Related pubchem assays: 1827 (Project Summary), 1813 (Primary HTS)]", "assay_type": "functional"}, "[10]": {"assay": "alpha-synuclein stem-loop luciferase translation blockers – H4 neuroglioma cells, luminescence, confirmation (AID 1988)", "assay_type": "functional, cell-based"}, "[11]": {"assay": "THP-1 cell cytotoxicity, dose response, cytotoxicity control for non-replicating M. tuberculosis project (AID 489025)", "assay_type": "functional"}, "[12]": {"assay": "HepG2 cell cytotoxicity, dose response, cytotoxicity control for non-replicating M. tuberculosis project (AID 489018)", "assay_type": "functional", "conditions": "Mycobacterium tuberculosis"}, "[13]": {"assay": "Vero E6 cell cytotoxicity, dose response, cytotoxicity control for non-replicating M. tuberculosis project, secondary assay (AID 492998)", "assay_type": "functional, VeroE6", "conditions": "Vero C1008"}, "cells": {"assay": "cells", "assay_type": "functional"}, "Melanocortin receptor 4": {"biological_target": "Melanocortin receptor 4 (Homo sapiens, UniProt P32245)", "sequence (P32245 whole entry)": "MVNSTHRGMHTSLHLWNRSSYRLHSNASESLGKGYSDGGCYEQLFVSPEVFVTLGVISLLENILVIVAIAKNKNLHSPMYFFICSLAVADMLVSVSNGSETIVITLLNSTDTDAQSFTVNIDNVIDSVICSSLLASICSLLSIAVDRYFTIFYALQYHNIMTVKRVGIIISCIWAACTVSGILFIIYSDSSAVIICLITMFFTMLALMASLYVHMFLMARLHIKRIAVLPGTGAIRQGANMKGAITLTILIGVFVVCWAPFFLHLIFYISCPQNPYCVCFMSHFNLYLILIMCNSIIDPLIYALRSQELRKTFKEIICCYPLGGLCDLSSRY", "assay_type": "functional, cell-based"}, "[14]": {"biological_target": "Induced myeloid leukemia cell differentiation protein Mcl-1 (Homo sapiens, UniProt Q07820)", "sequence (Q07820 whole entry)": "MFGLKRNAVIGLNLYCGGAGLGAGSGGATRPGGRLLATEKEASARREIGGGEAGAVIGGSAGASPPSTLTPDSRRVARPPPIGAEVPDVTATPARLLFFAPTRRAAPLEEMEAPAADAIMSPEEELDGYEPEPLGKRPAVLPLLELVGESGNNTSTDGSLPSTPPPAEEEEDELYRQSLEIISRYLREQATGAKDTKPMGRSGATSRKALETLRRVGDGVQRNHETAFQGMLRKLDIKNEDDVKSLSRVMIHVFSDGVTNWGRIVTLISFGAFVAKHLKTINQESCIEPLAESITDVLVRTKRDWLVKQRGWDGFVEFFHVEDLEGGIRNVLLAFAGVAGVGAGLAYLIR", "assay_type": "functional"}, "[15]": {"biological_target": "Hepatocyte nuclear factor 4-alpha (Homo sapiens, UniProt P41235)", "sequence (P41235 whole entry)": "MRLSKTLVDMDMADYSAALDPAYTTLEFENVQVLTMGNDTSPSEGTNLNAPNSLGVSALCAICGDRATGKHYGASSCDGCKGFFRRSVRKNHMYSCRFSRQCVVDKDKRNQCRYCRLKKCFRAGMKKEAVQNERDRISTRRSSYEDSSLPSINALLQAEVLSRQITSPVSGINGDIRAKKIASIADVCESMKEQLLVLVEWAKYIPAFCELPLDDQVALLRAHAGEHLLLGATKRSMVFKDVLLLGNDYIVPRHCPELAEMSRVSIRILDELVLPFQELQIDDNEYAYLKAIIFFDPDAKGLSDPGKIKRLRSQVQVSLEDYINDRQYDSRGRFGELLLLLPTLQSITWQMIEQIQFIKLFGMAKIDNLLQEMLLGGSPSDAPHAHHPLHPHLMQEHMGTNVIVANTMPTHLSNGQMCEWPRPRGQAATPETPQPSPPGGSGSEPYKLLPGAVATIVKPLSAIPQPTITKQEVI", "assay_type": "functional, cell-based"}, "Vero": {"system": "Vero", "assay": "cells", "assay_type": "functional", "conditions": "Chlorocebus sabaeus"}, "[16]": {"biological_target": "V-type proton ATPase subunit c' (Saccharomyces cerevisiae S288c, UniProt P32842)", "sequence (P32842 whole entry)": "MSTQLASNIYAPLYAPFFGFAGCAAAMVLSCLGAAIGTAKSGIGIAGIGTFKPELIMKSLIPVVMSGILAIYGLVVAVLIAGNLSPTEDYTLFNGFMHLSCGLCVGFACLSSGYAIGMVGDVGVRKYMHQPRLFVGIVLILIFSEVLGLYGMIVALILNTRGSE", "assay": "Dose Response of Small Molecules that Regulate V-ATPase Proton Transport in Yeast using pHLuorin, Cherry Pick 2.", "assay_type": "functional", "conditions": "read-out: EC50_MICROM"}}, "note": "Activity calls are given as the source filed them."}
{"smiles": "Cc1ccc(NC(=O)CCn2c(=S)oc3ccccc32)cc1F", "values": [{"measurement": "IC50", "setting": "[1]", "value": "3.14 µM (active)"}, {"measurement": "IC50", "setting": "[2]", "value": "> 80 µM (inactive)"}, {"measurement": "IC50", "setting": "[3]", "value": "7.02 µM (active)"}]}
{"smiles": "CCC(=O)Nc1nnc(SCC(=O)NCCc2ccc(OC)c(OC)c2)s1", "values": [{"measurement": "EC50", "setting": "[4]", "value": "> 112 µM (not active)"}, {"measurement": "EC50", "setting": "[5]", "value": "> 112 µM (not active)"}, {"measurement": "IC50", "setting": "[6]", "value": "12 µM (inactive)"}, {"measurement": "IC50", "setting": "Steroidogenic factor 1", "value": "2.05 µM (active)"}, {"measurement": "IC50", "setting": "[7]", "value": "35.9 µM (inactive)"}]}
{"smiles": "CN(C)CCCN(C(=O)CCc1ccccc1)c1nc2ccc(Cl)cc2s1", "values": [{"measurement": "EC50", "setting": "[8]", "value": "> 60 µM (not active)"}, {"measurement": "EC50", "setting": "[9]", "value": "> 120 µM (not active)"}, {"measurement": "EC50", "setting": "[10]", "value": "> 120 µM (not active)"}, {"measurement": "CC50", "setting": "[11]", "value": "16.6 µM (active)"}, {"measurement": "CC50", "setting": "[12]", "value": "12.4 µM (active)"}, {"measurement": "CC50", "setting": "[13]", "value": "17.1 µM (active)"}, {"measurement": "IC50", "setting": "cells", "value": "22.9 µM (active)"}, {"measurement": "EC50", "setting": "Melanocortin receptor 4", "value": "> 89.2 µM (inactive)"}]}
{"smiles": "Cc1cccc(NC(=O)CSc2nnc(-c3ccco3)c(-c3ccco3)n2)c1", "values": [{"measurement": "IC50", "setting": "[14]", "value": "5.78 µM (active)"}, {"measurement": "IC50", "setting": "[15]", "value": "1.42 µM (active)"}]}
{"smiles": "CN1C(=O)/C(=C\\c2ccc(Br)s2)C(=O)NC1=S", "values": [{"measurement": "CC50", "setting": "Vero", "value": "22.9 µM (active)"}, {"measurement": "EC50", "setting": "[16]", "value": "6.43 µM (active)"}]}
